Data from patent publication US9456973B2, “Methionyl-methionine stereoisomers and use thereof in cosmetics” (EVONIK DEGUSSA GMBH, priority 2013, dated 2016).

How the values were obtained:
Design in all cases: species or system human
[1] = Hair fatigue breakage of bleached hair, Dia-stron Automatic Cyclic Tester (CYC800), Weibull analysis; settings: simple hair conditioner (Table 3), 2.0%; Constant Stress method; vehicle 14 190 cycles; FIG. 8
Method: A tress section of human Euro-Natural hair, remis, double-drawn with a length of 23 cm and a width of 2.0 cm with a weight of 2.0 g and dark-brown color was wetted under a tap of running water over the course of 10 seconds. 8 g of a 30% strength aqueous hydrogen peroxide solution were mixed with 4 g of Basler Blond Claire bleaching powder, 2 mL of a 25% strength aqueous ammonia solution were added, and combined again and 8 g of the resulting paste were massaged into the tress section with the help of a comb and the protected hands. […]
Afterwards, per treatment method 40 hairs were removed from the tress section and in each case the middle section of a hair with a length of 3 cm was crimped between two brass sleeves with plastic coating on the inside. The average area of each individual hair was measured using a Dia-stron FDAS760 fibre dimensional system and UvWin PC application software. […]
In order to measure the hair fatigue breakage, the hair samples were transferred to the sample cassette of a Dia-stron Automatic Cyclic Tester (CYC800) and climatized at 22° C. and 50-55% rel. atmospheric humidity. […] The characteristic life span a of a hair fibre is calculated by means of Weibull analysis. […]

[2] = Repair of bleached hair: tensile elongation forces by Dia-stron Tensile Tester MTT 670
Method: A tress section of human Euro-Natural hair, remis, double-drawn with a length of 23 cm and a width of 2.0 cm with a weight of 2.0 g and dark-brown color was wetted under a tap of running water over the course of 10 seconds. 8 g of a 30% strength aqueous hydrogen peroxide solution were mixed with 4 g of Basler Blond Claire bleaching powder, 2 mL of a 25% strength aqueous ammonia solution were added, and combined again and 8 g of the resulting paste were massaged into the tress section with the help of a comb and the protected hands. After a contact time of 30 minutes at room temperature, the tress section was washed for 2 minutes under running tap water at ca. 35° C. and then dried by means of an electronic hair dryer for 3 minutes while combing at the same time. The entire procedure was repeated once starting from the wetting of the tress section.
(§1) Afterwards, per treatment method 40 hairs were removed from the tress section and in each case the middle section of a hair with a length of 3 cm was crimped between two brass sleeves with plastic coating on the inside. The average area of each individual hair was measured using a Dia-stron FDAS760 fibre dimensional system and UvWin PC application software. The hair samples were then transferred to the sample cassette of a Dia-stron Tensile Tester MTT 670 and admixed in each case with demineralized water adjusted to pH 7 using citric acid. A measurement of the individual hair strands with the Single Fiber Method (Extension 20%, Rate 20 mm/min, Gauge Force 2, Maximum Force 200, Break Threshold 5, Sample Size 30 mm) was started. The hair samples were then removed from the sample cassette and covered with demineralized water in a plastic bowl.
(§2) For the treatment with hair conditioner, the water was removed after 30 minutes and the hair samples were covered with hair conditioner. After a contact time of 30 minutes, each individual hair sample was washed under a stream of running water at ca. 35° C. for 6 seconds. The hair samples were dried overnight at 22° C. and 50% relative atmospheric humidity.
For the treatment with shampoo, the water was removed after 30 minutes and the hair samples were covered with shampoo. After a contact time of 5 minutes, each individual hair sample was washed under a stream of running water at ca. 35° C. for 6 seconds. The hair samples were briefly dried by means of an electronic hair dryer and the shampoo treatment was repeated four times.
After the particular treatment, the measurement of the individual hair samples starting with the transfer to the sample cassette of the Dia-stron Tensile Tester MTT 670 was repeated.
The evaluation of the data takes place by reference to the parameters modulus of elasticity (E modulus), Load and/or Work. If a hair is pulled, the elongation is initially proportional to the applied force (Hooke's range). The modulus of elasticity describes the applied force per elongation (in Newton/mm^2) in the Hooke's range and therefore represents the tensile strength of a hair fibre. As soon as the hair has been elongated to a length of approximately 2%, it further deforms very rapidly up to ca. 25-30% of its original length, where the increase in the force required for this is minimal (Yield range). The parameter Load corresponds to the force (in Newtons) which is required to elongate the hair up to 15% and the parameter Work indicates the work required to elongate the hair from 0-15% (in Joules).

[3] = Protection of hair against thermal stress (smoothing iron): denaturation temperature by differential scanning calorimetry; settings: preventative treatment with active ingredient solution pH 5.5; vehicle 137.9° C.; FIG. 12
Method: (§3) A tress section of human Euro-Natural hair, remis, double-drawn with a length of 23 cm and a width of 2.0 cm with a weight of 2.0 g and dark-brown color was wetted under a tap of running water over the course of 10 seconds. Then, 2 mL of shampoo (28.6% Texapon NSO in dist. water) were massaged into the hair for 30 seconds, washed out for a further 30 seconds under running tap water at ca. 35° C., and the hair tress was squeezed between two fingers and combed six times. The hair tress was dipped for 1 minute in 300 mL of active ingredient solution (active ingredient, demin. water, lactic acid, pH 5.5), squeezed between two fingers and rinsed for 30 seconds under running tap water at ca. 35° C. and combed. The hair was dried using an electronic hair dryer for 3 minutes with simultaneous combing and then stored overnight in a climatically controlled chamber (37° C., 50% rel. atmospheric humidity).
The tress section was drawn four times in each case for 30 seconds through a smoothing iron (˜210° C.), which was pressed onto the tress by means of a 630 g weight. This treatment was repeated a total of five times from the wetting of the hair and shampoo treatment (in total 20 draws through the smoothing iron). […]

[4] = Repair of alkaline smoothed hair: tensile elongation forces by Tensile Tester; settings: simple hair conditioner (Table 8); 0.5% DD/LL 1:1, 0.5% L-methionine or 2.0% wheat protein (25% active); vehicle 0.43 mN; FIG. 9
Method: as §1
as §2, with “humidity. […]” for “humidity.”
(§4) Afterwards, 40 hairs were removed from the tress section and measured as described in Example 1. […]

[5] = Protection of hair against thermal stress (smoothing iron): hair fatigue breakage, Automatic Cyclic Tester; settings: FIG. 11
Method: as §3, with “The hair was dried using an electronic hair dryer for 3 minutes with simultaneous combing and then stored overnight in a climatically controlled chamber (37° C., 50% rel. atmospheric humidity).” left out
Afterwards, 50 hairs were removed from the tress section and in each case the middle section of a hair with a length of 3 cm was crimped between two brass sleeves with plastic coating on the inside. The average area of each individual hair was measured using a Dia-stron FDAS760 fibre dimensional system and UvWin PC application software.
The hair samples were then transferred to the sample cassette of a Dia-stron Automatic Cyclic Tester (CYC800) and climatized at 22° C. and 50-55% rel. atmospheric humidity. […] The probability of survival and the characteristic life span a of a hair fibre were calculated by means of Weibull analysis.

[6] = Repair of reductively smoothed hair: tensile elongation forces by Tensile Tester; settings: simple hair conditioner (Table 9); 0.5% DD/LL 1:1 or 2.0% wheat protein (25% active); FIG. 10
Method: as §1
as §2, with “humidity. […]” for “humidity.”
as §4

Row | Structure (SMILES) | characteristic life span α: number of cycles in which 63.2% of all hair fibres tear [1] | improvement of Load at 15% elongation (Load 15%) ([2]; expanded hair conditioner (Table 4), 1.0% DD/LL/LD/DL 35:35:65:65 or 4.0% wheat protein (25% active), vehicle 1.28 mN, FIG. 5) | improvement of Work up to 15% elongation (Work 15%) ([2]; expanded hair conditioner (Table 4), 1.0% DD/LL/LD/DL 35:35:65:65 or 4.0% wheat protein (25% active), vehicle 3.51 μJ, FIG. 6) | improvement of Load at 15% elongation (Load 15%) ([2]; shampoo (Table 5), 1.00% DD/LL/LD/DL 35:35:65:65, contact 5 minutes, five treatments, vehicle 0.46 mN, FIG. 7) | improvement of Work up to 15% elongation (Work 15%) ([2]; shampoo (Table 5), 1.00% DD/LL/LD/DL 35:35:65:65, contact 5 minutes, five treatments, vehicle 2.46 μJ) | improvement of Load at 15% elongation (Load 15%) ([2]; simple hair conditioner (Table 3), 2.0% active, DD/LL/LD/DL = 1:1:1:1, contact 30 minutes, vehicle 2.65 mN, FIG. 3) | improvement of Work up to 15% elongation (Work 15%) ([2]; simple hair conditioner (Table 3), 2.0% active, DD/LL/LD/DL = 1:1:1:1, contact 30 minutes, vehicle 11.0 μJ, FIG. 4) | hair denaturation temperature (TD) [3] | improvement of Load at 15% elongation (Load 15%) [4] | number of cycles at which 20% of the hair remain intact ([5]; preventative treatment with active ingredient solution pH 5.5, DD/LL weight ratio 1:1, vehicle 5500) | number of cycles at which 10% of the hair did not tear ([5]; preventative treatment with active ingredient solution pH 5.5, vehicle 8000) | improvement of Load at 15% elongation (Load 15%) relative to vehicle [6] | repair effect (Load 15%, Work 15%) compared with vehicle hair conditioner, in words ([2]; simple hair conditioner (Table 3), 2.0% raw material, FIGS. 3 and 4)
1 | CSCCC(N)C(=O)NC(CCSC)C(=O)O (racemic) [DD/LL/LD/DL-methionyl-methionine] | 33 980 cycles | 4.85 mN | 18.2 µJ | 1.33 mN | 2.58 µJ | 4.14 mN | 19.4 µJ |  |  |  |  |  | 
2 | CSCCC(N)C(=O)NC(CCSC)C(=O)O (centres unmarked) [DD/LL-methionyl-methionine] |  |  |  |  |  |  |  | 139.9 °C | 3.76 mN | 10 000 cycles | 22 000 cycles | 0.96 mN | 
3 | CSCC[C@H](N)C(=O)O [L-methionine] |  |  |  |  |  |  |  |  | 2.73 mN |  |  |  | could be further increased neither
